Test results published in patent publication US12606548B2, “Fungicidal oxadiazoles” (FMC CORPORATION, priority 2019, dated 2026).

How the values were obtained:
[1] = test system: Phakopsora pachyrhizi; assay: Test A: test suspension sprayed on soybean seedlings, inoculated next day with Phakopsora pachyrhizi (Asian soybean rust), visual disease rating; format: in vivo; conditions: for Test A rating (% disease control): relative to the controls
From the text: General protocol for preparing test suspensions for Tests A-C: the test compounds were first dissolved in acetone in an amount equal to 3% of the final volume and then suspended at the desired concentration (in ppm) in acetone and purified water (50/50 mix by volume) containing 250 ppm of the surfactant PEG400 (polyhydric alcohol esters). The resulting test suspensions were then used in Tests A-C. The test suspension was sprayed to the point of run-off on soybean seedlings. The following day the seedlings were inoculated with a spore suspension of Phakopsora pachyrhizi (the causal agent of Asian soybean rust) and incubated in a saturated atmosphere at 22° C., for 24 h and then moved to a growth chamber at 22° C., for 8 days, after which time visual disease ratings were made. […] A dash (-) indicates the compound was not tested. The test suspensions were sprayed at the concentration listed in the column “Rate in ppm”, unless otherwise indicated.

[2] = test system: Puccinia recondita f. sp. tritici; assay: Test C: test suspension sprayed on wheat seedlings, inoculated next day with Puccinia recondita f. sp. tritici (wheat leaf rust), visual disease rating; format: in vivo; conditions: for Test C rating (% disease control): relative to the controls
From the text: General protocol for preparing test suspensions for Tests A-C: the test compounds were first dissolved in acetone in an amount equal to 3% of the final volume and then suspended at the desired concentration (in ppm) in acetone and purified water (50/50 mix by volume) containing 250 ppm of the surfactant PEG400 (polyhydric alcohol esters). The resulting test suspensions were then used in Tests A-C. The test suspension was sprayed to the point of run-off on wheat seedlings. The following day the seedlings were inoculated with a spore suspension of Puccinia recondita f. sp. tritici; (the causal agent of wheat leaf rust) and incubated in a saturated atmosphere at 20° C., for 24 h, and then moved to a growth chamber at 20° C., for 6 days, after which time visual disease ratings were made. […] A dash (-) indicates the compound was not tested. The test suspensions were sprayed at the concentration listed in the column “Rate in ppm”, unless otherwise indicated.

Compound	Test A rating (% disease control) ([1]; Rate 10 ppm test suspension) [%]	Test C rating (% disease control) ([2]; Rate 10 ppm test suspension) [%]	further results
1-[[4-[5-(trifluoromethyl)-1,2,4-oxadiazol-3-yl]phenyl]methyl]-1H-pyrazolo[3,4-b]pyridine [Compound 147]			Test A disease control rating ([1]; 10 ppm test suspension): 100%; Test C disease control rating ([2]; 10 ppm test suspension): 68%
3-[5-[(4-bromo-1H-pyrazol-1-yl)methyl]-2-thienyl]-5-(trifluoromethyl)-1,2,4-oxadiazole [Compound 71]			Test A disease control rating ([1]; 10 ppm test suspension): 100%; Test C disease control rating ([2]; 10 ppm test suspension): 74%
6-chloro-2-[[4-[5-(trifluoromethyl)-1,2,4-oxadiazol-3-yl]phenyl]methyl]-3(2H)-pyridazinone [Compound 4]			Test A disease control rating ([1]; 50 ppm test suspension): 100%; Test C disease control rating ([2]; 50 ppm test suspension): 100%
COc1ccc(C(O)c2ccc(-c3noc(C(F)(F)F)n3)cc2)cc1 (racemic) [compound 309]			Test A disease control rating ([1]; 50 ppm test suspension): 100%; Test C disease control rating ([2]; 50 ppm test suspension): 68%
CCOC(=O)C1=NOC(Cc2ccc(-c3noc(C(F)(F)F)n3)s2)C1 (racemic) [compound 366]			Test A disease control rating ([1]; 50 ppm test suspension): 100%; Test C disease control rating ([2]; 50 ppm test suspension): 100%
O=C(O)C1=NOC(Cc2ccc(-c3noc(C(F)(F)F)n3)s2)C1 (racemic) [compound 367]			Test A disease control rating ([1]; 50 ppm test suspension): 96%; Test C disease control rating ([2]; 50 ppm test suspension): 67%
CNC(=O)C1=NOC(Cc2ccc(-c3noc(C(F)(F)F)n3)s2)C1 (racemic) [compound 368]			Test A disease control rating ([1]; 50 ppm test suspension): 100%; Test C disease control rating ([2]; 50 ppm test suspension): 100%
CCNC(=O)C1=NOC(Cc2ccc(-c3noc(C(F)(F)F)n3)s2)C1 (racemic) [compound 369]			Test A disease control rating ([1]; 50 ppm test suspension): 100%; Test C disease control rating ([2]; 50 ppm test suspension): 100%
C#CCNC(=O)C1=NOC(Cc2ccc(-c3noc(C(F)(F)F)n3)s2)C1 (racemic) [compound 429]			Test A rating (% disease control) ([1]; Rate 50 ppm test suspension): 100%; Test C rating (% disease control) ([2]; Rate 50 ppm test suspension): 100%
CCN(CC)C(=O)C1=NOC(Cc2ccc(-c3noc(C(F)(F)F)n3)s2)C1 (racemic) [compound 430]			Test A rating (% disease control) ([1]; Rate 50 ppm test suspension): 100%; Test C rating (% disease control) ([2]; Rate 50 ppm test suspension): 100%
CN(C)C(=O)C1=NOC(Cc2ccc(-c3noc(C(F)(F)F)n3)s2)C1 (racemic) [compound 460]			Test A rating (% disease control) ([1]; Rate 50 ppm test suspension): 100%; Test C rating (% disease control) ([2]; Rate 50 ppm test suspension): 99%
COCCNC(=O)C1=NOC(Cc2ccc(-c3noc(C(F)(F)F)n3)s2)C1 (racemic) [compound 461]			Test A rating (% disease control) ([1]; Rate 50 ppm test suspension): 100%; Test C rating (% disease control) ([2]; Rate 50 ppm test suspension): 100%
CCCOC(=O)c1cnn(C(C)c2ccc(-c3noc(C(F)(F)F)n3)s2)c1 (racemic) [compound 493]	100	100	
FC(F)(F)c1nc(-c2ccc(Cn3ccc4ncccc43)cc2)no1 [Compound 136, 1-[[4-[5-(trifluoromethyl)-1,2,4-oxadiazol-3-yl]phenyl]methyl]-1H-pyrrolo[3,2-h]pyridine]			Test A disease control rating ([1]; 10 ppm test suspension): 100%; Test A disease control rating ([1]; 50 ppm test suspension): 100%; Test C disease control rating ([2]; 10 ppm test suspension): 68%; Test C disease control rating ([2]; 50 ppm test suspension): 94%
COC(=O)c1ccc2c(c1)nnn2Cc1ccc(-c2noc(C(F)(F)F)n2)cc1 [compound 22]			Test A disease control rating ([1]; 10 ppm test suspension): 100%; Test C disease control rating ([2]; 10 ppm test suspension): 96%
CCOC(=O)c1cc(C)n(Cc2ccc(-c3noc(C(F)(F)F)n3)cc2)n1 [compound 110]			Test A disease control rating ([1]; 10 ppm test suspension): 100%; Test C disease control rating ([2]; 10 ppm test suspension): 91%
COCCNC(=O)c1cc(C)n(Cc2ccc(-c3noc(C(F)(F)F)n3)cc2)n1 [compound 183]			Test A disease control rating ([1]; 10 ppm test suspension): 100%; Test C disease control rating ([2]; 10 ppm test suspension): 100%
COC(=O)c1cnn(Cc2ccc(-c3noc(C(F)(F)F)n3)s2)c1 [compound 188]			Test A disease control rating ([1]; 10 ppm test suspension): 100%; Test C disease control rating ([2]; 10 ppm test suspension): 100%
O=C(NCCCl)c1coc(Cc2ccc(-c3noc(C(F)(F)F)n3)cc2)n1 [compound 204]			Test A disease control rating ([1]; 10 ppm test suspension): 100%; Test C disease control rating ([2]; 10 ppm test suspension): 100%
CN(CC#N)C(=O)c1cnn(Cc2ccc(-c3noc(C(F)(F)F)n3)cc2)c1 [compound 379]	100	97	
CCONC(=O)c1cnn(Cc2ccc(-c3noc(C(F)(F)F)n3)cc2)c1 [compound 380]	100	100	
Nc1cnn(Cc2ccc(-c3noc(C(F)(F)F)n3)cc2)c1 [compound 381]	0	0	
O=[N+]([O-])c1cnn(Cc2ccc(-c3noc(C(F)(F)F)n3)cc2)c1 [compound 382]	100	96	
FC(F)(F)c1nc(-c2ccc(Cn3cc(I)cn3)cc2)no1 [compound 383]	71	68	
CCON=Cc1cnn(Cc2ccc(-c3noc(C(F)(F)F)n3)cc2)c1 [compound 384]	100	100	

Compound	Test A rating (% disease control) ([1]; Rate 10 ppm test suspension) [%]	Test C rating (% disease control) ([2]; Rate 10 ppm test suspension) [%]	further results
CCCON=Cc1cnn(Cc2ccc(-c3noc(C(F)(F)F)n3)cc2)c1 [compound 385]	100	100	
C=CCON=Cc1cnn(Cc2ccc(-c3noc(C(F)(F)F)n3)cc2)c1 [compound 386]	100	100	
C#CCON=Cc1cnn(Cc2ccc(-c3noc(C(F)(F)F)n3)cc2)c1 [compound 387]	100	99	
CC(C)ON=Cc1cnn(Cc2ccc(-c3noc(C(F)(F)F)n3)cc2)c1 [compound 388]	100	100	
CC(=O)NN=Cc1cnn(Cc2ccc(-c3noc(C(F)(F)F)n3)cc2)c1 [compound 389]	100	100	
CS(=O)(=O)CCOC(=O)c1cnn(Cc2ccc(-c3noc(C(F)(F)F)n3)cc2)c1 [compound 390]	100	100	
CCOC(CC(=O)c1cnn(Cc2ccc(-c3noc(C(F)(F)F)n3)cc2)c1)OCC [compound 391]	100	100	
CN(C)C(=O)c1cnn(CCCc2ccc(-c3noc(C(F)(F)F)n3)cc2)c1 [compound 406]	100	93	
Nc1ncnc2c1cnn2Cc1ccc(-c2noc(C(F)(F)F)n2)cc1 [compound 407]	100	100	
FC(F)(F)c1nc(-c2ccc(Cn3ncc4ncccc43)cc2)no1 [compound 408]	100	100	
FC(F)(F)c1nc(-c2ccc(Cn3cc4ncccc4n3)cc2)no1 [compound 409]	100	100	
CCCCOC(=O)c1cnn(Cc2ccc(-c3noc(C(F)(F)F)n3)cc2)c1 [compound 410]	100	100	
O=C(OCC1CC1)c1cnn(Cc2ccc(-c3noc(C(F)(F)F)n3)cc2)c1 [compound 411]	100	100	
O=C(OCc1ccccc1)c1cnn(Cc2ccc(-c3noc(C(F)(F)F)n3)cc2)c1 [compound 412]	100	100	
FC(F)(F)c1nc(-c2ccc(Cn3ncc4cc(Br)cnc43)cc2)no1 [compound 413]	100	68	
FC(F)(F)c1nc(-c2ccc(Cn3cc4cc(Br)cnc4n3)cc2)no1 [compound 414]	100	100	
CNC(=O)c1cnn(CCCc2ccc(-c3noc(C(F)(F)F)n3)cc2)c1 [compound 415]	100	96	
CCCOC(=O)c1cnn(Cc2ccc3cc(-c4noc(C(F)(F)F)n4)ccc3c2)c1 [compound 416]			Test A rating (% disease control) ([1]; Rate 50 ppm test suspension): 77%; Test C rating (% disease control) ([2]; Rate 50 ppm test suspension): 0%
N#Cc1cccn(Cc2ccc(-c3noc(C(F)(F)F)n3)cc2)c1=O [compound 417]	100	100	
CCOC(=O)c1cncn(Cc2ccc(-c3noc(C(F)(F)F)n3)cc2)c1=O [compound 418]	100	99	
CCOC(=O)c1cn(Cc2ccc(-c3noc(C(F)(F)F)n3)cc2)c(=O)cn1 [compound 419]	96	99	
COC(=O)c1ccc(=O)n(Cc2ccc(-c3noc(C(F)(F)F)n3)cc2)c1 [compound 420]	100	100	
COc1ccn(Cc2ccc(-c3noc(C(F)(F)F)n3)cc2)c(=O)c1 [compound 421]	100	100	
COC(=O)c1cccn(Cc2ccc(-c3noc(C(F)(F)F)n3)cc2)c1=O [compound 422]	90	93	
